# Data from article PMC5916032 (Journal of molecular biology, 2018).
# Biological target: fascin 1 (Homo sapiens, UniProt Q16658)
# Test: X-ray co-crystal structure
# Type: biochemical
smiles,measurement,value
"Cc1cnoc1C(=O)Nc1nn(Cc2ccc(C(F)(F)F)cc2)c2ccccc12 [NP-G2-029, 4-methyl-N-(1-(4-(trifluoromethyl)benzyl)-1H-indazol-3-yl)isoxazole-5-carboxamide]",IC50,~180 nM
